# Measured values reported in publication PMC4384643 (Molecular cell, 2015).
# Entries after “also recorded” stand apart in the source; their conditions may differ.
# Experiments:
# BCL-2 = settings: ref Souers et al., 2013; cited from earlier work
# BAX = assay: BAX/BCL-2 co-immunoprecipitation in HeLa cells; format: binding; settings: HeLa cells co-expressing full-length BAX and BCL-2; BCL-2 antibody IP
Compound,BCL-2 inhibitory activity (BCL-2),co-immunoprecipitation of BAX with BCL-2 (BAX)
CC1(C)CCC(CN2CCN(c3ccc(C(=O)NS(=O)(=O)c4ccc(NCC5CCOCC5)c([N+](=O)[O-])c4)c(Oc4cnc5[nH]ccc5c4)c3)CC2)=C(c2ccc(Cl)cc2)C1 [ABT-199],selective BCL-2 inhibitor,–
BCL-2 L23A: L23A point mutant of BCL-2 protein,–,impaired by L23A mutagenesis of the BCL-2 BH4 domain; also recorded: less effective at co-immunoprecipitating BAX relative to wild-type BCL-2
